Data published in patent US20120077683A1, “KIT AND METHOD FOR PREDICTING CYTARABINE SENSITIVY OF PATIENT HAVING ACUTE MYELOID LEUKEMIA” (SAMSUNG ELECTRONICS CO., LTD., priority 2010, published 2012).

Tests used:
[1] = test system: patients having acute myeloid leukemia; test: Cytarabine therapy of patients having acute myeloid leukemia, complete remission determined from number of leukocytes; format: in vivo, human; conditions: of 139 patients with acute myeloid leukemia, cytarabine administered according to NCCN guidelines
Description: Cytarabine sensitivity of 139 patients who had acute myeloid leukemia and were treated in Samsung Medical Center was identified. That is, cytarabine was administered to the patients according to NCCN guidelines, and the number of leukocytes was subsequently measured in each patient to determine complete remission to determine whether the cytarabine therapy was effective for the patient. The patients were then classified into one group of 121 patients having cytarabine sensitivity (responders) and the other group of 18 patients not having cytarabine sensitivity (nonresponders). In addition, blood of the patients was obtained to extract DNA by using QIAamp DNA Mini and blood Mini kits in order to determine SNPs associated with cytarabine sensitivity of the patients.

[2] = test system: patients having acute myeloid leukemia; conditions: stated as known; cited from earlier work

Compound: Nc1ccn([C@@H]2O[C@H](CO)[C@@H](O)[C@@H]2O)c(=O)n1 [cytarabine, cytosine arabinoside]
- patients having cytarabine sensitivity (responders) [1]: 121 patients
- patients not having cytarabine sensitivity (nonresponders) [1]: 18 patients
- patients having acute myeloid leukemia on whom administration of cytarabine is not effective [2]: about 20%
